What was measured:
[1] = system: velvetleaf; assay: Test C pre-/postemergence herbicide test; type: in vivo, Abutilon theophrasti
In short: (§1)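 Test compounds, formulated in a surfactant-containing non-phytotoxic solvent blend, are applied to seeded loam/sand soil (preemergence) and to young plants at the 1- to 4-leaf stage in peat-based medium (postemergence). Plants stay 13 to 15 days under greenhouse conditions, then are scored visually relative to controls, 0 = no effect, 100 = complete control.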

[2] = system: pigweed; assay: Test C pre-/postemergence herbicide test; type: in vivo, Amaranthus retroflexus
In short: as §1

[3] = system: wheat; assay: Test A pre-/postemergence herbicide test; type: in vivo, Triticum aestivum
In short: (§2)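 Planted in loam–sand blend; treated the same day preemergence by directed soil spray, while separately grown plants at one- to two-leaf stage got postemergence spray. Compared visually with untreated controls after approximately 10 days; 100 means complete control.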

[4] = system: pigweed; assay: Test A pre-/postemergence herbicide test; type: in vivo, Amaranthus retroflexus
In short: as §2

[5] = system: foxtail, giant; assay: Test C pre-/postemergence herbicide test; type: in vivo, Setaria faberii
In short: as §1

[6] = system: lambsquarters; assay: Test C pre-/postemergence herbicide test; type: in vivo, Chenopodium album
In short: as §1

[7] = system: galium; assay: Test C pre-/postemergence herbicide test; type: in vivo, Galium aparine; conditions: for Plant response rating, Galium: Postemergence
In short: as §1

[8] = system: nutsedge, yellow; assay: Test C pre-/postemergence herbicide test; type: in vivo, Cyperus esculentus
In short: as §1

[9] = system: corn; assay: Test C pre-/postemergence herbicide test; type: in vivo, Zea mays
In short: as §1

[10] = system: waterhemp; assay: Test C pre-/postemergence herbicide test; type: in vivo, Amaranthus rudis
In short: as §1

[11] = system: johnsongrass; assay: Test C pre-/postemergence herbicide test; type: in vivo, Sorghum halepense
In short: as §1

[12] = system: oilseed rape; assay: Test C pre-/postemergence herbicide test; type: in vivo, Brassica napus
In short: as §1

[13] = Postemergence, 31 g ai/ha, scale 0 (no effect) to 100 (complete control)
[14] = Postemergence, 62 g ai/ha, scale 0 to 100 (0 no effect, 100 complete control)
[15] = Postemergence, 125 g ai/ha, scale 0 to 100 (0 no effect, 100 complete control)
[16] = Postemergence, 250 g ai/ha, scale 0 to 100 (0 no effect, 100 complete control)
[17] = Preemergence, 31 g ai/ha, scale 0 to 100, 0 is no effect and 100 is complete control
[18] = Preemergence, 62 g ai/ha, scale 0 to 100
[19] = Preemergence, 125 g ai/ha, scale 0 to 100 (0 no effect, 100 complete control)
[20] = Postemergence, 125 g ai/ha, 0 to 100 scale, 0 no effect, 100 complete control
[21] = Postemergence, 500 g ai/ha, 0 to 100 scale (0 no effect, 100 complete control)
[22] = Preemergence, 125 g ai/ha, visual rating on 0 to 100 scale (0 no effect, 100 complete control)
[23] = preemergence, 500 g ai/ha, 0 to 100 scale

In the case of `O=C1NCC(c2ccc(F)c(C(F)(F)F)c2)C1C(=O)Nc1ccccc1F` (racemic) [Compound 76], the “Plant response rating, Velvetleaf” value [1, 13] was 0, the “Plant response rating, Velvetleaf” value [1, 14] was 0 and the “Plant response rating, Velvetleaf” value [1, 15] was 0. The “Plant response rating, Velvetleaf” value [1, 16] was 0, the “Velvetleaf plant response rating” value [1, 17] was 0 and the “Plant response rating, Velvetleaf” value [1, 18] was 0. The “Plant response rating, Velvetleaf” value [1, 19] was 25, the “Plant response rating (scale of 0 to 100), Velvetleaf” value ([1]; Preemergence, 250 g ai/ha) was 35 and the “Plant response rating, Pigweed” value [2, 13] was 5. The “Plant response rating, Pigweed” value [2, 14] was 10, the “Plant response rating, Pigweed” value [2, 15] was 10 and the “Plant response rating, Pigweed” value [2, 16] was 30. For the same molecule, the “Plant response rating, Pigweed” value [2, 18] was 0, the “Plant response rating, Pigweed” value [2, 19] was 0 and the “Plant response rating (scale of 0 to 100), Pigweed” value ([2]; Preemergence, 250 g ai/ha) was 40. For the same molecule, the “Plant response rating, Wheat” value [3, 20] was 50, the “Plant response rating, Wheat” value [3, 21] was 60 and the “Wheat plant response rating” value [3, 22] was 0. For the same molecule, the “Plant response rating, Wheat” value [3, 23] was 0, the “Plant response rating, Pigweed” value [4, 20] was 50 and the “Plant response rating, Pigweed” value [4, 21] was 60. For the same molecule, the “Pigweed plant response rating” value [4, 22] was 0, the “Plant response rating, Pigweed” value [4, 23] was 50 and the “Plant response rating, Foxtail, Giant” value [5, 13] was 0. For the same molecule, the “Plant response rating, Foxtail, Giant” value [5, 14] was 5, the “Plant response rating, Foxtail, Giant” value [5, 15] was 20 and the “Plant response rating, Foxtail, Giant” value [5, 16] was 70. For the same molecule, the “Foxtail, Giant plant response rating” value [5, 17] was 90, the “Plant response rating, Foxtail, Giant” value [5, 18] was 95 and the “Plant response rating, Foxtail, Giant” value [5, 19] was 95. The “Plant response rating (scale of 0 to 100), Foxtail, Giant” value ([5]; Preemergence, 250 g ai/ha) was 98, the “Plant response rating, Lambsquarters” value [6, 13] was 40 and the “Plant response rating, Lambsquarters” value [6, 14] was 40. The “Plant response rating, Lambsquarters” value [6, 15] was 40, the “Plant response rating, Lambsquarters” value [6, 16] was 50 and the “Plant response rating, Lambsquarters” value [6, 18] was 0. The “Plant response rating, Lambsquarters” value [6, 19] was 0, the “Plant response rating (scale of 0 to 100), Lambsquarters” value ([6]; Preemergence, 250 g ai/ha) was 35 and the “Plant response rating, Galium” value ([7]; 31 g ai/ha, scale 0 (no effect) to 100 (complete control)) was 30. The “Plant response rating, Galium” value ([7]; 62 g ai/ha, scale 0 to 100 (0 no effect, 100 complete control)) was 50, the “Plant response rating, Galium” value ([7]; 125 g ai/ha, scale 0 to 100 (0 no effect, 100 complete control)) was 50 and the “Plant response rating, Galium” value ([7]; 250 g ai/ha, scale 0 to 100 (0 no effect, 100 complete control)) was 65. For the same molecule, the “Galium plant response rating” value [7, 17] was 5, the “Plant response rating (scale of 0 to 100), Galium” value ([7]; Preemergence, 250 g ai/ha) was 85 and the “Plant response rating, Nutsedge, Yellow” value [8, 13] was 0. For the same molecule, the “Plant response rating, Nutsedge, Yellow” value [8, 14] was 0, the “Plant response rating, Nutsedge, Yellow” value [8, 15] was 0 and the “Plant response rating, Nutsedge, Yellow” value [8, 16] was 0. The “Nutsedge, Yellow plant response rating” value [8, 17] was 0, the “Plant response rating, Nutsedge, Yellow” value [8, 18] was 0 and the “Plant response rating, Nutsedge, Yellow” value [8, 19] was 20. For the same molecule, the “Plant response rating (scale of 0 to 100), Nutsedge, Yellow” value ([8]; Preemergence, 250 g ai/ha) was 55, the “Plant response rating, Corn” value [9, 13] was 0 and the “Plant response rating, Corn” value [9, 14] was 0. The “Plant response rating, Corn” value [9, 15] was 0, the “Plant response rating, Corn” value [9, 16] was 0 and the “Corn plant response rating” value [9, 17] was 0. For the same molecule, the “Plant response rating, Corn” value [9, 18] was 10, the “Plant response rating, Corn” value [9, 19] was 40 and the “Plant response rating (scale of 0 to 100), Corn” value ([9]; Preemergence, 250 g ai/ha) was 65. The “Plant response rating, Waterhemp” value [10, 13] was 0, the “Plant response rating, Waterhemp” value [10, 14] was 5 and the “Plant response rating, Waterhemp” value [10, 15] was 5. For the same molecule, the “Plant response rating, Waterhemp” value [10, 16] was 10, the “Waterhemp plant response rating” value [10, 17] was 50 and the “Plant response rating, Waterhemp” value [10, 18] was 50. The “Plant response rating, Waterhemp” value [10, 19] was 50, the “Plant response rating (scale of 0 to 100), Waterhemp” value ([10]; Preemergence, 250 g ai/ha) was 60 and the “Plant response rating, Johnsongrass” value [11, 13] was 0. For the same molecule, the “Plant response rating, Johnsongrass” value [11, 14] was 0, the “Plant response rating, Johnsongrass” value [11, 15] was 0 and the “Plant response rating, Johnsongrass” value [11, 16] was 0. For the same molecule, the “Johnsongrass plant response rating” value [11, 17] was 20, the “Plant response rating, Johnsongrass” value [11, 18] was 45 and the “Plant response rating, Johnsongrass” value [11, 19] was 45. For the same molecule, the “Plant response rating (scale of 0 to 100), Johnsongrass” value ([11]; Preemergence, 250 g ai/ha) was 80, the “Plant response rating, Oilseed Rape” value [12, 13] was 0 and the “Plant response rating, Oilseed Rape” value [12, 14] was 0. For the same molecule, the “Plant response rating, Oilseed Rape” value [12, 15] was 0, the “Plant response rating, Oilseed Rape” value [12, 16] was 10 and the “Oilseed Rape plant response rating” value [12, 17] was 0. The “Plant response rating, Oilseed Rape” value [12, 18] was 0, the “Plant response rating, Oilseed Rape” value [12, 19] was 30 and the “Plant response rating (scale of 0 to 100), Oilseed Rape” value ([12]; Preemergence, 250 g ai/ha) was 75.

Reference: patent publication US10294202B2, “Pyrrolidinones as herbicides” (FMC Corporation, priority 2013, dated 2019)
